Measurements as given in patent US11370775B2, “Substituted benzimidazole derivatives as D-amino acid oxidase (DAAO) inhibitors” (NATIONAL TAIWAN UNIVERSITY, priority 2016, dated 2022).

Key:
[1] = target: T1, porcine kidney DAO (Sus scrofa, UniProt P00371); test: pkDAO enzymatic assay (porcine kidney DAO IC50 assay); assay type: biochemical; conditions: D-alanine substrate, pH 8.3, 37° C., without FAD
T1 construct: purchased Sigma-Aldrich; host or cells: porcine kidney
Method: The DAAO enzymatic activity assay was modified according to the report of Oguri et al (Oguri, S., Screening of d-amino acid oxidase inhibitor by a new multi-assay method. Food chemistry 2007, 100 (2), 616). The DAAO activity was measured by using substrate D-alanine reaction produced hydrogen peroxide (H2O2) to further react with 3-(4-hydroxyphenyl) propionic acid (HPPA). The HPPA were oxidized by H2O2 and peroxidase to become the fluorogenic dimer which was measured to represent the activity of DAAO.
For porcine kidney DAO IC50 assay, the DAO substrate was prepared in 50 mM D-alanine (dissolved in 0.2 M Tris-HCl buffer, pH 8.3). A 100 μl of D-alanine solution was mixed with 4 μl (in 100% dimethyl sulfoxide, DMSO) of different concentrations of candidate compounds shown in tables below ranging from 48.83 μM, 97.66 μM, 195.31 μM, 390.63 μM, 781.25 μM, 1.56 mM, 3.13 mM, 6.25 mM, 12.50 mM, 25.00 mM, and 50.00 mM, with a final DMSO concentration of 0.167% in each reaction concentration. 10 μl of D-alanine and candidate compound mixture was incubated with 220 μl of Reaction Master Mix in black 96 well plate at 37° C. for 5 minutes. The Reaction Master Mix contained 110 μl of 5 U/mL porcine kidney DAO (Sigma-Aldrich, USA) solution (dissolved with 0.2 M Tris-HCl buffer, pH 8.3), 1.1 mL of 15 U/mL peroxidase solution (dissolved with 0.2 M Tris-HCl buffer, pH 8.3), 1.1 mL of 20 mM HPPA solution (dissolved with 0.2 M Tris-HCl buffer, pH 8.3), and 22 ml of 2 M Tris-HCl buffer (pH 8.3) for 110 reaction assays.
Fluorescence intensity (Fs) was measured at 405 nm by irradiation excitation at 320 nm. The higher the DAO enzymatic activity was, the higher the fluorescence intensity. The fluorometric inhibition indicator (Fi) was obtained from the following equation: Fi=(Fs-FDrug)/(FDMSO), where the fluorescent drug blank (FDrug) was measured in the drug mixture solution (using 0.2 M Tris HCl buffer, pH 8.3, without D-alanine). A DMSO blank (FDMSO) was measured under a 100% DMSO solution.
Although FAD is generally included in the reaction mixture in the D-amino acid oxidase assay since it easily dissociates from the holoenzyme, the present method was performed without FAD. The inhibitory effect of DAO inhibitors was compared by using inhibitory concentrations leading to 50% inhibition of DAAO activity (IC50). The IC50 values were calculated by nonlinear regression model using GraphPad Prism, version 5(GraphPad Software, Inc., La Jolla, Calif.).

[2] = system: MK-801-induced anhedonia in C57BL/6 mice; test: Sucrose preference test, MK-801-induced anhedonia; assay type: in vivo; conditions: for Effect on MK-801 induced anhedonia (sucrose preference): MK-801 0.2 mg/kg i.p., mice; for Effect on anhedonia after acute MK-801 injection (FIG. 2): different dosages
Excerpt: The NMDA-receptor antagonist MK-801-induced negative or cognitive deficits in C57BL/6 mice were in a well-established drug-induced schizophrenia mouse model and as a useful pharmacological animal model to identify if the RS-D7, its analog and its prodrug improve the symptoms through the NMDA receptor.
All wild-type (WT) mice used in this study were backcrossed onto a C57BL/6J background from the Laboratory Animal Center of National Taiwan University Hospital, and all behavioral examinations were conducted in WT mice. For acclimatizing to laboratory conditions, the mice were allowed free access to food and water and were housed in groups with a 12 hours light-dark cycle in a temperature and humidity controlled room of the Psychology Department, National Taiwan University. All animals within the age of 3 months were housed individually one week before experiment testing with food and water available ad libitum. In the beginning of the experiments, the mice were handled and weighted daily at least 1 week before the behavioral experiments. The entire animal procedures were performed according to protocols approved by the Animal Care and Use Committee established by the National Taiwan University.
MK-801 was dissolved in saline and administered at a volume of 0.01 ml/g body weight. RS-D7, Drug 12083 (analog of RS-D7) and was freshly dissolved in 1% CMC to the concentration of 2 mg/ml before usage. Prodrug 28095 was freshly dissolved in NMP:HP-beta-CD:H2O (5:25:70) to the concentration of 2 mg/ml before usage. All animals were given vehicle (saline) or MK-801 (0.2 mg/kg, i.p.) 25 minutes before the behavioral experiments. Both vehicle (1% CMC or NMP:HP-beta-CD:H2O) and experimental groups (RS-D7, Drug 12083 or Prodrug 28095) were treated after 5 minutes MK-801 administration with the appropriate dose via P.O. injections (at a volume of 0.01 ml/g body weight).
For investigating the treatment effect of RS-D7 for negative and cognitive symptoms, a series of three behavioral tests (run from the first to the third week), which included open field, sucrose preference test and prepulse inhibition were performed in sequence with a 1-week interval between tests.
To assess the anhedonia, one of the negative symptoms of schizophrenia, all mice underwent 4-day testing. In the beginning of the sucrose preference, all mice were deprived of water for 23 hours in all the experiment from one day before the first day. On the first day, each mouse was given free access to 2 identical bottles with water for 1 hour. Then, the 2 identical bottles were replaced that one filled with 1% (wt/vol) sucrose solution and the other with water on the second day. On the third and fourth day, each mouse was received MK-801 and RS-D7 treatment before the experiment, and also free accessed to bottles for 1 hour. After the experiment, the 2 bottles were weighted to measure the 1-hour consumption of sucrose solution and water. The sucrose preference percentage (SPP) was calculated using the following formula: % SPP=sucrose solution consumption (g)×100%/[water consumption (g)+sucrose solution consumption (g)].

T1 sequence (P00371 whole entry): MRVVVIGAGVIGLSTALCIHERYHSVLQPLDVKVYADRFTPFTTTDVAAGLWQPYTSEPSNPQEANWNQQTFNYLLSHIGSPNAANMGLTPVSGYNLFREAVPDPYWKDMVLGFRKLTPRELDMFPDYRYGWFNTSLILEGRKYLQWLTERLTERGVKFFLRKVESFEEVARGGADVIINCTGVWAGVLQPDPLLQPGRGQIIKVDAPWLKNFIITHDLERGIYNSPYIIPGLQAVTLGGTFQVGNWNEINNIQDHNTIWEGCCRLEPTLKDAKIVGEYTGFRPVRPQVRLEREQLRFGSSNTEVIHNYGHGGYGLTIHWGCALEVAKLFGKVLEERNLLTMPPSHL

Structure (SMILES)	IC50 [1] [µM]	Effect on MK-801 induced anhedonia (sucrose preference) ([2]; 20 mg/kg P.O.)	Effect on anhedonia after acute MK-801 injection (FIG. 2) [2]	Effect on MK-801 induced anhedonia (sucrose preference) ([2]; 100 mg/kg P.O.)	Effect on MK-801 induced anhedonia (sucrose preference) ([2]; 200 mg/kg P.O.)	Effect on MK-801 induced anhedonia (sucrose preference) ([2]; 400 mg/kg P.O.)
COc1c(C)cnc(CSc2nc3cc(C(=O)O)ccc3n2CCC2=CCCCC2)c1C [compound 12083, 1-(2-(cyclohex-1-en-1-yl)ethyl)-2-(((4-methoxy-3,5-dimethylpyridin-2-yl)methyl)thio)-1H-benzo[d]imidazole-5-carboxylic acid]	367	normalized MK-801 induced anhedonia	rescue the anhedonia after acute MK-801 injection	–	–	–
COc1c(C)cnc(C[S+]([O-])c2nc3ccc(O)cc3[nH]2)c1C (centres unmarked) [RS-D7, reference compound]	1.19	–	rescue the anhedonia after acute MK-801 injection	rescued the MK-801 induced anhedonia deficit	rescued the MK-801 induced anhedonia deficit	rescued the MK-801 induced anhedonia deficit
